Patent publication US8691991B2 (priority 2004, dated 2014)
pIC50: −log10 of the molar value.

Test system: Pseudotyped HIV vector
Assay: Pseudotyped HIV vector expressing luciferase reporter assay
Format: cell-based
Details: Human immunodeficiency virus 1
Procedure: Pseudotyped HIV Vector Expressing Luciferase Reporter Assay
Expression of luciferase reporter following viral integration was performed essentially as described in Jármy, G. et al., J. Medical Virology, 64:223-231, 2001.

SMILES | pIC50
COCCN(C)C(=O)Cn1c(=O)c(C(=O)NC(C)CO)c(O)c2ncc(Cc3ccc(F)cc3)cc21 (racemic) [Example 105, (±)-7-[(4-Fluorophenyl)methyl]-4-hydroxy-N-[2-hydroxy-1-methylethyl]-1-(2-{methyl[2-(methyloxy)ethyl]amino}-2-oxoethyl)-2-oxo-1,2-dihydro-1,5-naphthyridine-3-carboxamide] | > 8.00
COCCN(C)C(=O)Cn1c(=O)c(C(=O)NCC(C)O)c(O)c2ncc(Cc3ccc(F)cc3)cc21 (racemic) [Example 106, (±)-7-[(4-Fluorophenyl)methyl]-4-hydroxy-N-[(2-hydroxypropyl]-1-(2-{methyl[2-(methyloxy)ethyl]amino}-2-oxoethyl)-2-oxo-1,2-dihydro-1,5-naphthyridine-3-carboxamide] | > 8.00
COCCNC(=O)c1c(O)c2ncc(Cc3ccc(F)cc3)cc2[nH]c1=O [Example 2, 7-(4-Fluorobenzyl)-4-hydroxy-N-(2-methoxyethyl)-2-oxo-1,2-dihydro-1,5-naphthyridine-3-carboxamide] | > 8.00
O=C(NC1CC1)c1c(O)c2ncc(Cc3ccc(F)cc3)cc2n(CCN2CCCC2=O)c1=O [Example 9, N-Cyclopropyl-7-(4-fluorobenzyl)-4-hydroxy-2-oxo-1-[2-(2-oxopyrrolidin-1-yl)ethyl]-1,2-dihydro-1,5-naphthyridine-3-carboxamide] | > 8.00
O=C(NCCN1CCOCC1)c1c(O)c2ncc(Cc3ccc(F)cc3)cc2n(CCN2CCCC2=O)c1=O [Example 10, 7-(4-Fluorobenzyl)-4-hydroxy-N-(2-morpholin-4-ylethyl)-2-oxo-1-[2-(2-oxopyrrolidin-1-yl)ethyl]-1,2-dihydro-1,5-naphthyridine-3-carboxamide] | > 8.00
COCCNC(=O)c1c(O)c2ncc(Cc3ccccc3)cc2n(CC(=O)N2CCOCC2)c1=O [Example 12] | > 8.00
COCCNC(=O)c1c(O)c2ncc(Cc3ccccc3)cc2[nH]c1=O [Example 17] | 7.60 to 8.00
O=C(NCCCN1CCCC1=O)c1c(O)c2ncc(Cc3ccc(F)cc3)cc2[nH]c1=O [Example 28] | > 8.00
O=C(NCCN1CCOCC1)c1c(O)c2ncc(Cc3ccc(F)cc3)cc2[nH]c1=O [Example 36, 7-[(4-Fluorophenyl)methyl]-4-hydroxy-N-[2-(4-morpholinyl)ethyl]-2-oxo-1,2-dihydro-1,5-naphthyridine-3-carboxamide] | > 8.00
COCCNC(=O)c1c(O)c2ncc(Cc3ccccc3)cc2n(Cc2ccc(S(C)(=O)=O)cc2)c1=O [Example 45, 7-Benzyl-4-hydroxy-N-(2-methoxyethyl)-1-[4-(methylsulfonyl)benzyl]-2-oxo-1,2-dihydro-1,5-naphthyridine-3-carboxamide] | > 8.00
COCCNC(=O)c1c(O)c2ncc(Cc3ccc(F)cc3)cc2n(CCN2CCCC2=O)c1=O [Example 49, 7-(4-Fluorobenzyl)-4-hydroxy-N-(2-methoxyethyl)-2-oxo-1-[2-(2-oxopyrrolidin-1-yl)ethyl]-1,2-dihydro-1,5-naphthyridine-3-carboxamide] | > 8.00
COCCNC(=O)c1c(O)c2ncc(Cc3ccccc3)cc2n(Cc2nccn2C)c1=O [Example 50, 7-Benzyl-4-hydroxy-N-(2-methoxyethyl)-1-[(1-methyl-1H-imidazol-2-yl)methyl]-2-oxo-1,2-dihydro-1,5-naphthyridine-3-carboxamide] | > 8.00
COCCNC(=O)c1c(O)c2ncc(Cc3ccccc3)cc2n(CC2CC2)c1=O [Example 54, 7-Benzyl-1-(cyclopropylmethyl)-4-hydroxy-N-(2-methoxyethyl)-2-oxo-1,2-dihydro-1,5-naphthyridine-3-carboxamide] | > 8.00
COCCNC(=O)c1c(O)c2ncc(Cc3ccccc3)cc2n(Cc2nccs2)c1=O [Example 62, 7-Benzyl-4-hydroxy-N-(2-methoxyethyl)-2-oxo-1-(1,3-thiazol-2-ylmethyl)-1,2-dihydro-1,5-naphthyridine-3-carboxamide] | > 8.00
COCCNC(=O)c1c(O)c2ncc(Cc3ccc(F)cc3)cc2n(Cc2ccc(S(C)(=O)=O)cc2)c1=O [Example 64, 7-(4-Fluorobenzyl)-4-hydroxy-N-(2-methoxyethyl)-1-[4-(methylsulfonyl)benzyl]-2-oxo-1,2-dihydro-1,5-naphthyridine-3-carboxamide] | > 8.00
O=C(NCCN1CCOCC1)c1c(O)c2ncc(Cc3ccc(F)cc3)cc2n(CC(=O)N2CCOCC2)c1=O [Example 83, 7-[(4-Fluorophenyl)methyl]-4-hydroxy-N-[2-(4-morpholinyl)ethyl]-1-[2-(4-morpholinyl)-2-oxoethyl]-2-oxo-1,2-dihydro-1,5-naphthyridine-3-carboxamide] | 7.60 to 8.00

SMILES | pIC50
COCCNC(=O)c1c(O)c2ncc(Cc3ccc(F)cc3)cc2n(CC(=O)N2CCOCC2)c1=O [Example 84, 7-[(4-Fluorophenyl)methyl]-4-hydroxy-N-[2-(methyloxy)ethyl]-1-[2-(4-morpholinyl)-2-oxoethyl]-2-oxo-1,2-dihydro-1,5-naphthyridine-3-carboxamide] | > 8.00
CC(C)(CO)CNC(=O)c1c(O)c2ncc(Cc3ccc(F)cc3)cc2[nH]c1=O [Example 85, 7-[(4-Fluorophenyl)methyl]-4-hydroxy-N-(3-hydroxy-2,2-dimethylpropyl)-2-oxo-1,2-dihydro-1,5-naphthyridine-3-carboxamide] | > 8.00
O=C(NCCOCCO)c1c(O)c2ncc(Cc3ccc(F)cc3)cc2[nH]c1=O [Example 86, 7-[(4-Fluorophenyl)methyl]-4-hydroxy-N-{2-[(2-hydroxyethyl)oxy]ethyl}-2-oxo-1,2-dihydro-1,5-naphthyridine-3-carboxamide] | > 8.00
COCCNC(=O)c1c(O)c2ncc(Cc3ccc(F)cc3)cc2n(CC(=O)N(C)C)c1=O [Example 89, 1-[2-(Dimethylamino)-2-oxoethyl]-7-[(4-fluorophenyl)methyl]-4-hydroxy-N-[2-(methyloxy)ethyl]-2-oxo-1,2-dihydro-1,5-naphthyridine-3-carboxamide] | > 8.00
CN(C)C(=O)Cn1c(=O)c(C(=O)NCCN2CCOCC2)c(O)c2ncc(Cc3ccc(F)cc3)cc21 [Example 91, 1-[2-(Dimethylamino)-2-oxoethyl]-7-[(4-fluorophenyl)methyl]-4-hydroxy-N-[2-(4-morpholinyl)ethyl]-2-oxo-1,2-dihydro-1,5-naphthyridine-3-carboxamide] | 7.60 to 8.00
O=C(NCCCN1CCOCC1)c1c(O)c2ncc(Cc3ccc(F)cc3)cc2n(CC(=O)N2CCOCC2)c1=O [Example 93, 7-[(4-Fluorophenyl)methyl]-4-hydroxy-1-[2-(4-morpholinyl)-2-oxoethyl]-N-[3-(4-morpholinyl)propyl]-2-oxo-1,2-dihydro-1,5-naphthyridine-3-carboxamide] | 7.60 to 8.00
O=C(NCCCN1CCCC1=O)c1c(O)c2ncc(Cc3ccc(F)cc3)cc2n(CC(=O)N2CCOCC2)c1=O [Example 94, 7-[(4-Fluorophenyl)methyl]-4-hydroxy-1-[2-(4-morpholinyl)-2-oxoethyl]-2-oxo-N-[3-(2-oxo-1-pyrrolidinyl)propyl]-1,2-dihydro-1,5-naphthyridine-3-carboxamide] | 7.60 to 8.00
O=C(NCCO)c1c(O)c2ncc(Cc3ccc(F)cc3)cc2n(CC(=O)N2CCOCC2)c1=O [Example 95, 7-[(4-Fluorophenyl)methyl]-4-hydroxy-N-(2-hydroxyethyl)-1-[2-(4-morpholinyl)-2-oxoethyl]-2-oxo-1,2-dihydro-1,5-naphthyridine-3-carboxamide] | 7.60 to 8.00
Cn1c(=O)c(C(=O)NCCN2CCOCC2)c(O)c2ncc(Cc3ccc(F)cc3)cc21 [Example 96, 7-[(4-Fluorophenyl)methyl]-4-hydroxy-1-methyl-N-[2-(4-morpholinyl)ethyl]-2-oxo-1,2-dihydro-1,5-naphthyridine-3-carboxamide] | > 8.00
Cn1c(=O)c(C(=O)NCCCN2CCOCC2)c(O)c2ncc(Cc3ccc(F)cc3)cc21 [Example 97, 7-[(4-Fluorophenyl)methyl]-4-hydroxy-1-methyl-N-[3-(4-morpholinyl)propyl]-2-oxo-1,2-dihydro-1,5-naphthyridine-3-carboxamide] | > 8.00
COCCNC(=O)c1c(O)c2ncc(Cc3ccc(F)cc3)cc2n(C)c1=O [Example 98, 7-[(4-Fluorophenyl)methyl]-4-hydroxy-1-methyl-N-[2-(methyloxy)ethyl]-2-oxo-1,2-dihydro-1,5-naphthyridine-3-carboxamide] | > 8.00
Cn1c(=O)c(C(=O)NCCCN2CCCC2=O)c(O)c2ncc(Cc3ccc(F)cc3)cc21 [Example 99, 7-[(4-Fluorophenyl)methyl]-4-hydroxy-1-methyl-2-oxo-N-[3-(2-oxo-1-pyrrolidinyl)propyl]-1,2-dihydro-1,5-naphthyridine-3-carboxamide] | > 8.00
Cn1c(=O)c(C(=O)NCCO)c(O)c2ncc(Cc3ccc(F)cc3)cc21 [Example 101, 7-[(4-Fluorophenyl)methyl]-4-hydroxy-N-(2-hydroxyethyl)-1-methyl-2-oxo-1,2-dihydro-1,5-naphthyridine-3-carboxamide] | > 8.00
COCCNC(=O)c1c(O)c2ncc(Cc3ccc(F)cc3)cc2n(CC(=O)N2CCN(C)CC2)c1=O [Example 102, 7-[(4-Fluorophenyl)methyl]-4-hydroxy-N-[2-(methyloxy)ethyl]-1-[2-(4-methyl-1-piperazinyl)-2-oxoethyl]-2-oxo-1,2-dihydro-1,5-naphthyridine-3-carboxamide] | > 8.00
COCCNC(=O)c1c(O)c2ncc(Cc3ccc(F)cc3)cc2n(CC(=O)N(C)CCOC)c1=O [Example 104, 7-[(4-Fluorophenyl)methyl]-4-hydroxy-1-(2-{methyl[2-(methyloxy)ethyl]amino}-2-oxoethyl)-N-[2-(methyloxy)ethyl]-2-oxo-1,2-dihydro-1,5-naphthyridine-3-carboxamide] | > 8.00
CCOCCNC(=O)c1c(O)c2ncc(Cc3ccc(F)cc3)cc2n(CC(=O)N(C)CCOC)c1=O [Example 107, N-[2-(ethyloxy)ethyl]-7-[(4-fluorophenyl)methyl]-4-hydroxy-1-(2-{methyl[2-(methyloxy)ethyl]amino}-2-oxoethyl)-2-oxo-1,2-dihydro-1,5-naphthyridine-3-carboxamide] | > 8.00
